Like-named read-outs stand apart in the source and are kept apart here.
What was measured:
Format in all cases: cell-based, human
[1] = test system: MLC phosphorylation in MDA-MB-231 cells; test: MLC phosphorylation in parental MDA-MB-231 breast cancer cells (quantitative western blot); settings: for EC50: parental MDA-MB-231, 30 minutes treatment, read-out: EC50, inhibition of MLC phosphorylation; for pMLC on western blots at higher concentrations: parental MDA-MB-231, higher concentrations
Procedure: All results are shown as mean ± standard error of n = 3 independent replicates. […] After fixation and permeabilization, cells were stained with phalloidin to visualize filamentous actin structures and pMLC (S19) primary antibody as indicated.
Cell lysates were prepared as described previously. For pMLC western blots, cells were lysed in a 1% (w/v) SDS, 50 mM Tris pH 7.5 buffer and lysates were passed through QIAshredder columns (Qiagen, 79654). Alternatively, for pMLC western blots lysates were prepared in lysis buffer with 50 mM Tris (pH7.5), 0.5% (w/v) SDS, supplemented with Complete Protease and PhosSTOP inhibitors (Roche). Whole cell lysates were separated by SDS-PAGE, transferred to Protran nitrocellulose membranes (Whatman), probed with primary antibodies and appropriate IR dye-conjugated secondary antibodies. Blots were visualized using a Licor Odyssey according to manufacturer’s instructions. Antibodies used in this study were: MRCKα (611584) from BD Transduction Laboratories; MRCKβ (H00009578-A01) from Abnova; MRCKα/β (MANDM1 6G8) from Glenn Morris (Centre for Inherited Neuromuscular Disease, Oswestry UK); MRCL3/MRLC2/MYL9 (sc-28329) from Santa Cruz Biotechnology; pMLC2 Thr18/Ser19 (3674) from Cell Signaling Technology. ROCK1/2 (07–1458) from Millipore; TetR (Clone 9G9; 631132) from Clontech; α-Tubulin (TU-02; sc-8035) from Santa Cruz Biotechnology; ERK2 from Chris Marshall (Institute of Cancer Research, London UK). Secondary antibodies used were: goat anti-mouse IgG Dylight 800 from Thermo Scientific (35521), goat anti rabbit IgG AlexaFluor 680 from Invitrogen (A12076), goat anti-rabbit IgG IR Dye 800 CW (926–32211) and goat anti-mouse IgG IR Dye 680 (926–68020) were from LI-COR Biosciences.

SCC12 cells [2] = test: Alamar Blue cell viability, SCC12 cells; settings: 2 μM, 24 hours
Procedure: (§1) All results are shown as mean ± standard error of n = 3 independent replicates. […] Readings were compared to the Alamar Blue metabolism in DMSO treated cells that were used as the viability standard of 100% for each replicate experiment. […] (F) Number of invading cells was determined in 5 random fields for each condition for each separate replicate experiment. All results are shown as mean ± standard error of n ≥ 3 independent replicates.
(§2) MDA MB 231 or SCC12 cells were plated in a 96 well plate and cultured for 24 hours. […] Pictures were taken every 3 hours and confluence was measured using the IncuCyte analysis software. AlamarBlue (Invitrogen, DAL 1025) was added to the medium and the cells were cultured for an additional day. Absorbances at 570 nm and at 600 nm were measured to assess cell health.

SCC12 cells [3] = test: Cell confluence by Incucyte image analysis, SCC12 cells; settings: 2 μM, 21 hours
Procedure: as §1, §2

SCC12 cells [4] = test: Organotypic collagen invasion of SCC12 cells; settings: 2 μM, ten days
Procedure: as §1
SCC12 invasion assays were performed essentially as described in [12]. HN-CAF cells were grown for 5 days in a Matrigel-collagen gel, covered with DMEM + 10%FBS medium, and allowed to remodel the matrix. The gel consisted of: 280 μL of DMEM + 10% FBS, 100 μL FBS, 20 μL 1 M Hepes pH 7.5 and approximately 200 μL of Matrigel (BD Biosciences, 354234), 400 μL of collagen type 1 (BD Biosciences, 354249) and 5×10^5 HN-CAF cells. Puromycin was subsequently added to the medium at 10 μg/ml for 3 days to remove HN-CAF cells. The gels were washed in SCC medium 3 times for 2 hours and SCC12 cells were plated on the surface of the gel and left to adhere overnight. […] The gels were fixed overnight in 4% PFA and 1% glutaraldehyde in PBS, washed in PBS and processed for histology.

Structure (SMILES): O=C(Nc1cn[nH]c1-c1ccccn1)c1nn(C2CCNCC2)cc1Cl [BDP5290, 4-chloro-1-(4-piperidyl)-N-[5-(2-pyridyl)-1H-pyrazol-4-yl]pyrazole-3-carboxamide]
- EC50 ([1]; Homo sapiens, 0.5 h): 316 nM
- pMLC on western blots at higher concentrations [1]: reduced pMLC to undetectable levels
- cell viability (Alamar Blue metabolism) versus DMSO (SCC12 cells [2]): did not differ from DMSO standard values
- cell confluence (SCC12 cells [3]): did not significantly differ between treatments
- SCC12 invasion into three dimensional collagen matrix (SCC12 cells [4]): profound effect

Structure (SMILES): C[C@@H](N)[C@H]1CC[C@H](C(=O)Nc2ccncc2)CC1 [Y27632, reference compound]
- EC50 [1]: 407 nM
- pMLC on western blots at higher concentrations [1]: unable to completely inhibit pMLC
- cell viability (Alamar Blue metabolism) versus DMSO (SCC12 cells [2]): did not differ from DMSO standard values
- cell confluence (SCC12 cells [3]): did not significantly differ between treatments
- SCC12 invasion into three dimensional collagen matrix (SCC12 cells [4]): did not significantly affect
